Laboratory results from patent US20080081039A1, “Inorganic Selenium For Treatment Of Cancer” (priority 2004, published 2008).

Tests used:
[1] = test system: Akt; assay: Activation of Akt by different selenium compounds in PC-3 cells, immunoblot; type: cell-based, human; settings: 125 μM, 6 hours, serum starved PC-3 cells
From the text: Signal intensities from the developed films were scanned and intensities of active Akt correlated to total Akt levels were plotted.

[2] = test system: DU145 prostate cancer cells; settings: cited from earlier work
[3] = test system: Histone H2A.X; settings: 500 μM
Protocol: 5×10^5 PC-3 cells were plated in a 6 well dish and 24 hours later cells were treated with paclitaxel at 1 μg/mL or 10 μg/mL or selenate 500 μM (19 mg/kg) or selenite 500 μM (18 mg/kg) for the indicated times. Cells were then washed in PBS, lysed in ELB lysis buffer and whole cell lysates run on a SDS-PAGE gel and blotted and probed with the indicated antibodies. Phosphorylation of Histone H2AX occurs within minutes of DNA damage, typically via DNA double or single strand breaks and is a very sensitive readout of DNA damage.
To ascertain the differences between selenate, selenite and the taxane, paclitaxel in inducing DNA damage PC-3 cells were treated with these compounds for increasing time periods then lysed. The protein extracts were probed for phosphorylation of Histone H2A.X using a phosphorylation specific antibody.

[4] = at certain doses; cited from earlier work
[5] = test system: β-tubulin; assay: β-tubulin levels in treated PC-3 cell lysates; type: cell-based, human
[6] = test system: human prostate cancer PC-3 cells; assay: Cell toxicity by Trypan Blue Exclusion, selenate versus selenite; settings: 5 μM or 50 μM, 24 to 96 hours
Protocol: 5×10^3 human prostate cancer PC-3 cells were seeded in a 24-well dish and 8 hours later were treated with either 5 μM or 50 μM of selenate or selenite. The dose range of 5 μM or 50 μM is equivalent to 0.1 mg/kg to 1.25 mg/kg. Cells were harvested at 24, 48, 72 and 96 hours following the addition of selenate or selenite and the percentage of viable cells as assessed by Trypan Blue staining was determined.
All cells in the tissue culture wells were then harvested sequentially at periods between 24 and 96 hours following addition of the treatments. The percentage of viable cells were then determined using the Trypan Blue exclusion assay.

[7] = test system: PC-3 cells; assay: MTT growth assay; type: cell-based, human; settings: 0.25 and 0.5 mM, 72 hour
Protocol: MTT Growth Assays involved plating 1×10^3 PC-3 cells per well in a 96 well plate and allowing the cells to attach overnight. […] The controls for this experiment received an equal volume of LY294002 diluent (DMSO). MTT growth assays were then performed according to the manufacturer's protocol (Sigma).

[8] = test system: GFP-FKHR fusion protein; assay: GFP-FKHR cellular localization in transfected PC-3 cells; type: cell-based, human; settings: LY294002 50 μM 1 hour; sodium selenate or selenomethionine 0.5 mM 3 hours
Protocol: The day before transfection, 5×10^5 PC-3 cells were seeded in 24-well dishes and transiently transfected with 0.8 μg of pcDNA3-GFP-FKHRwt construct (kind gift Dr Bill Sellers, Dana-Farber Institute, Boston) using Lipofectamine 2000 (Invitrogen). Cells were permeabilized in 0.2% Triton X-100 and the nuclear contents stained with DAPI. Coverslips were mounted with fluorescent mounting medium (DAKO). The cellular distribution of green fluorescence was determined in dual fluorescent cells using a Leica epifluorescent microscope.
Reintroducing PTEN function in such cells induces translocation of FKHR to the nucleus eventually causing G1 arrest in PTEN-null cells (Nakamura et al 2000, supra).

[9] = test system: cell cycle regulatory proteins (cyclin D1, cdk4, cdk6, p27KIP1, p21CIP1); assay: Immunoblot of cell cycle regulatory proteins in PC-3 cells; type: cell-based, human; settings: 0.5 mM, compared to control (0 hours), FIG. 3C
From the text: The following antibodies were obtained from Cell Signaling Technology (Beverly, Mass., USA) unless otherwise stated: anti-p27^KIP1 (bd Pharmingen), anti-p21^CIP1 , ANTI-CYCLIN d1, ANTI-CYCLIN d3, ANTI-CDK4, ANTI-CDK6, ANTI-PHOSPHO rb (Ser807/811), anti-RB, anti-phospho Akt (Ser473), anti-phospho Akt (Thre308), anti-Akt, anti-phospho PDK1 (Ser241), anti-phospho PDK1 (Tyr373/376), anti-phospho GSK-3β, anti-phospho mTOR (Ser2448), anti-mTOR, anti-βIII tubulin (Promega).
To determine the effect of selenate on the phosphorylation of proteins involved in the PI3K/Akt signaling cascade, 5×10^5 PC-3 cells were allowed to attach for 10 hours. […] Cells were lysed in ELB (250 mM NaCl, 50 mM HEPES pH 7.0, 5 mM EDTA, 0.5 mM DTT, 0.2% TX100, 20 mM sodium fluoride, 2 mM sodium pervanadate, Complete Protease Inhibitor Cocktail (Roche)). Lysates were centrifuged for 15 minutes at 4° C. Protein concentration was determined using the BCA system (Sigma) and equal amounts of protein were loaded into each lane of a SDS-polyacrylamide gel. The proteins were transferred onto PVDF (Millipore) membranes and detected with anti-mouse or anti-rabbit secondary antibodies couples to horseradish peroxidase (HRP) and chemiluminescence using the SuperSignal West Dura (Pierce). Membranes were stripped using the Restore Western Blot Stripping Buffer (Pierce).

N[C@@H](C[SeH])C(=O)O [Selenocysteine]
activation of Akt (phosphorylated Akt relative to total Akt) [1]: induce activation of Akt above control (con) levels

O=[Se](O)O [Selenous acid]
activation of Akt (phosphorylated Akt relative to total Akt) [1]: induce activation of Akt above control (con) levels

O=[Se]=O [selenium dioxide]
activation of Akt (phosphorylated Akt relative to total Akt) [1]: induce activation of Akt above control (con) levels

C[Se](=O)O [Methylseleninic acid]
apoptosis and phosphorylation of Akt in DU-145 cells ([2]; 3 μM): not associated with apoptosis or with decreased phosphorylation of Akt | G1 arrest and apoptosis markers in DU145 cells [2]: induces G1 arrest, as well as DNA fragmentation and caspase mediated cleavage of PARP | G1 arrest of DU-145 cells ([2]; doses as low as 3 μM): induced G1 arrest | Akt activation in DU-145 cells ([2]; higher doses of 5 μM): dose-dependent decline in Akt activation | apoptosis in DU-145 cells ([2]; higher doses of 5 μM): initiation of caspase-mediated apoptosis

O=[Se](O)O [sodium selenite]
time of treatment to DNA damage [3]: ≤ 30 min | toxicity to cells [4]: toxic to cells | cellular tubulin degradation ([5]; 100 μM, 250 μM or 500 μM, 16 hours): marked degradation | β-tubulin levels ([5]; 500 μM, increasing time periods): concomitant decrease in β-tubulin levels | cytotoxic effect (Trypan Blue exclusion) [6]: cytotoxic effect

S=[Se]=S [selenium sulfide]
activation of Akt (phosphorylated Akt relative to total Akt) [1]: induce activation of Akt above control (con) levels

C[Se]CC[C@H](N)C(=O)O [selenomethionine, reference compound]
PC-3 cell proliferation (MTT proliferative index) [7]: less effective in reducing cell proliferation | relocalization of GFP-FKHR from the cytoplasm to the nucleus [8]: unable to induce relocalization | p27KIP1 total protein levels, inorganic versus organic selenium [9]: little effect
